What was measured:
Assay type in all cases: functional
Diparopsis watersi = assay: Insecticidal activity against L3 to L4 larvae of Diparopsis watersi assessed as mortality after 48 hr by leaf disc assay
Helicoverpa armigera [1] = assay: Insecticidal activity against Helicoverpa armigera assessed as time above which insecticide kills less than 50% of larvae by measuring index of persistence in presence of 24 mm of simulated rain applied at three days interval
Helicoverpa armigera [2] = assay: Insecticidal activity against Helicoverpa armigera assessed as time above which insecticide kills less than 50% of larvae by measuring index of persistence under in absence of rain
Helicoverpa armigera [3] = assay: Insecticidal activity against L5 larvae of Helicoverpa armigera assessed as mortality after 48 hr by leaf disk assay
Helicoverpa armigera [4] = assay: Insecticidal activity against L4 larvae of Helicoverpa armigera assessed as mortality after 48 hr by leaf disk assay
Helicoverpa armigera [5] = assay: Insecticidal activity against L3 larvae of Helicoverpa armigera assessed as mortality after 48 hr by leaf disk assay
Helicoverpa armigera [6] = assay: Insecticidal activity against L2 larvae of Helicoverpa armigera assessed as mortality after 48 hr by leaf disk assay
Helicoverpa armigera [7] = assay: Insecticidal activity against L1 larvae of Helicoverpa armigera assessed as mortality after 48 hr by leaf disk assay
Earias = assay: Insecticidal activity against L3 to L4 larvae of Earias spp. assessed as mortality after 48 hr by leaf disk assay

Row | SMILES | mortality (Diparopsis watersi) | Time (Helicoverpa armigera [1]) | Time (Helicoverpa armigera [2]) | mortality (Helicoverpa armigera [3]) | mortality (Helicoverpa armigera [4]) | mortality (Helicoverpa armigera [5]) | mortality (Helicoverpa armigera [6]) | mortality (Helicoverpa armigera [7]) | mortality (Earias)
1 | O=S1OCC2C(CO1)C1(Cl)C(Cl)=C(Cl)C2(Cl)C1(Cl)Cl (configuration not stated) [ENDOSULFAN] | 82.8% | 5.2 days | 8.7 days | 92.5% | 89.5% | 94.1% | 91.5% | 93.3% | 99.4%
2 | COC(=O)N(C(=O)N1CO[C@@]2(C(=O)OC)Cc3cc(Cl)ccc3C2=N1)c1ccc(OC(F)(F)F)cc1 [INDOXACARB] | 77.7% | 3.7 days | 8.4 days | 94.5% | 90.9% | 89.3% | 78.9% | 86.2% | 90.8%
3 | CS/C(C)=N\OC(=O)N(C)SN(C)C(=O)O/N=C(\C)SC [THIODICARB] | 99.3% | 17.2 days | 27 days | 96.5% | 97.5% | 94.1% | 99.2% | 98.6% | 100%

Source: ChEMBL document CHEMBL3046741, “Initial activity and persistence of insecticides for the control of bollworms (Lepidoptera: Noctuidae) in cotton crops” (2009)
